Patent US20140128357A1, “METHODS OF PRODUCING AND USING BRASSINOSTEROIDS TO PROMOTE GROWTH, REPAIR AND MAINTENANCE OF SKELETAL MUSCLE AND SKIN” (Rutgers University, priority 2010, published 2014)
pIC50: −log10 of the molar value.

Tests used:
rats = conditions: orally or subcutaneously; cited from earlier work
mice = conditions: orally or subcutaneously; cited from earlier work
[1] = Cytotoxicity, MTT assay in 3T3 fibroblasts; type: cell-based, mouse; conditions: mouse
Experimental: (§1) FIG. 9. Cell survival curves as measured by MTT assay for brassinosteroids 1-9 against the murine fibroblast cell line NIH-3T3. Cells were incubated with various concentrations of brassinosteroids (0.3-30 μM) for 24 h at 37° C. The mean absorbance of the control cells represented 100% cell proliferation, and the mean absorbance of treated cells was related to control values to determine sensitivity. Error bars represent standard error (n=6) from mean cell proliferation as determined by repeated experiments.
(§2) In various aspects, cell viability is measured and the effects of doses of compound and test reagents are tested in cell lines. In some aspects, cell viability was measured by the MTT (3-(4,5-Dimethylthiazol-2-yl)-2,5-diphenyltetrazolium bromide) assay in triplicate (Mosmann et al., J. Immunol. Methods 65:55-63, 1983) and quantified spectrophotometrically at 550 nm using a microplate reader (Molecular Devices, Sunnyvale, Calif.).
(§3) 3T3 fibroblasts were seeded in a 96-well flat bottom plate at a density of 1×10^4 cells/well. Cell viability was measured by an MTT (3-(4,5-Dimethylthiazol-2-yl)-2,5-diphenyltetrazolium bromide) assay in triplicate (0.3-30 μM of test substance for […]) essentially as described by Mosmann (J. Immunol. Methods 65, 55-63, 1983) and quantified spectrophotometrically at 550 nm using a microplate reader (Molecular Devices, Sunnyvale, Calif.). […] For cell proliferation studies, cells were treated in triplicate with 0.1-10 μM of test substance for 24 h and assayed using a BrdU (5-bromo-2′-deoxyuridine) kit from Amersham (Uppsala, Sweden).

[2] = test system: NIH 3T3 murine fibroblast cell line; experiment: Cytotoxicity, MTT assay in 3T3 fibroblasts; type: cell-based, mouse
Experimental: as §1, §2, §3

L6 rat myotubes [3] = experiment: Protein synthesis, [3H]-phenylalanine incorporation in myotubes; type: cell-based; conditions: 10 μM, 4 h
Experimental: (§4) In some aspects, cell culture experiments were carried out. Rat L6 skeletal muscle cell line CRL-1458 was obtained from ATCC (Manassas, Va.). Myoblasts were routinely maintained in Dulbecco's modified Eagle's medium (DMEM) containing 10% FBS and 0.1% penicillin-streptomycin at 37° C. and 5% CO2. Cells were subcultured into 24-well plates for protein synthesis, degradation, and cell viability studies and into 6-well plates for Western blot analyses (Greiner Bio One, Monroe, N.C.). Once cells reached 90% confluence, differentiation was induced by lowering the serum concentration to 2%, and medium was changed every 2 days. After 7-9 days of culture the myoblasts had fused into multinucleated myotubes (Mandel et al., Nature 251:618-620, 1974). NIH 3T3 murine embryonic fibroblast cell line (ATCC #CCL-92) was maintained in DMEM and 10% FBS at 37° C. in 5% CO2, and passaged every 3-4 days.
In various aspects, protein synthesis is measured to determine the effect of brassinosteroid on a particular protein. All known methods for measuring protein synthesis are included in the methods of the disclosure. In brassinosteroid dose response studies, fully differentiated myotubes were washed with serum-free DMEM and treated in triplicate with vehicle (0.1% ethanol), increasing concentrations of HB, or 6.5 nM of insulin-like growth factor-1 (IGF-1) as a positive control. Compounds were added to serum-free medium containing 0.5 μCi/mL [^3H]-phenylalanine and incubated for 4 h. For the HB time course study, fully differentiated myotubes were treated with 3 μM HB for 1-24 h using the same culture conditions. The incubation was stopped by placing cells on ice, discarding the medium, and washing the cells extensively with ice-cold PBS to remove the non-incorporated radiolabel. Proteins were precipitated with 5% trichloroacetic acid and dissolved in 0.5N NaOH (Montgomery et al., Methods Cell. Sci. 24:123-129, 2002). Specific radioactivity of protein-bound phenylalanine was quantified using liquid scintillation counter LS 6500 (Beckman Coulter, Fullerton, Calif.) and normalized to mg of total protein determined by BCA protein assay (Pierce Biotechnology, Rockford, Ill.).
The bioactivity of HB and its analogs was evaluated by measuring increases in protein synthesis in the L6 rat skeletal muscle cells in vitro. Cells were incubated for 4 h with [^3H]-phenylalanine and treated in triplicate with vehicle (0.1% ethanol) or test compound (10 μM), and protein synthesis was measured as incorporation of [^3H]-phenylalanine into protein normalized by total protein (Table 3). Under these conditions, both HB and (22S,23S)-homocastasterone increased protein synthesis by 37.2±5.9% (p<0.001) and 41.0±2.7% (p<0.001), respectively. This protein synthesis increase compared favorably to the biological activity of IGF-1 at 6.5 nM (42.5±4.5%, p<0.001) that served as a positive control in this assay. Removal of the 2α-hydroxyl group and fluorination at C-3 in the A ring (compound IDs 3-4 in Table 3) led to about a 50% decrease in bioactivity (24.6±5.3%, p<0.01 and 22.5±2.7%, p<0.01, respectively) compared to the positive control. However, there was still an increase in protein synthesis. […] Modifications in the side chain (compound IDs 7-9 in Table 3) abolished the activity.

L6 rat myotubes [4] = experiment: Protein degradation, release of acid-soluble [3H]-phenylalanine; type: cell-based; conditions: 10 μM, 4 h
Experimental: as §4, with “After 7-9 days of culture the myoblasts had fused into multinucleated myotubes (Mandel et al., Nature 251:618-620, 1974).” left out
In various aspects, protein degradation is measured to determine the effect of brassinosteroid on a particular protein. All known methods for measuring protein degradation are included in the methods of the disclosure. The effect of brassinosteroids on protein degradation was investigated in fully differentiated myotubes as described by Fawcett et al. (Arch. Biochem. Biophys. 385:357-363, 2001) with slight modifications. Fully differentiated myotubes were incubated for 16 h to allow labeling of cellular proteins with 1.5 μCi/mL [^3H]-phenylalanine. […] The incubation was stopped by placing the cells on ice, and protein in the medium was precipitated with 5% trichloroacetic acid. Specific radioactivity of protein-free phenylalanine was quantified using liquid scintillation counter LS 6500 (Beckman Coulter, Fullerton, Calif.) and normalized to mg of total cell protein determined by BCA protein assay (Pierce Biotechnology, Rockford, Ill.).
The bioactivity of HB and its analogs (as shown in Table 3) were also evaluated by measuring decreases in protein degradation in the L6 rat skeletal muscle cells in vitro. Cells were labeled overnight with [^3H]-phenylalanine and subsequently treated for 4 h in triplicate with vehicle (0.1% ethanol) or test compound (10 μM), and protein degradation was assessed as release of acid-soluble [^3H]-phenylalanine into the media normalized by total protein (Table 3).

[5] = test system: 3T3 Swiss fibroblast monolayers; experiment: Scratch wound closure in vitro; type: cell-based, mouse; conditions: for Scratch wound closure at 5 μM, % of control: 12 h (Table 6)
Experimental: 3T3 fibroblasts were seeded into 24-well dishes at a concentration of 3×10^5 cells/ml and cultured to nearly confluent cell monolayers. On the day of the experiment, a linear wound was generated in the monolayer with a sterile 100 μl plastic pipette tip and any cellular debris was removed by washing cells once with sterile PBS. Fresh DMEM medium containing vehicle (0.1% ethanol), positive control (0.5% FBS), or various concentrations of the fractions, sub-fractions or pure compounds was added to a set of 3 wells per dose and incubated for 12 h at 37° C. with 5% CO2. Cells were then visualized with 20 μl of 10% methylene blue in PBS for 5 min. Three representative images of the scratched areas from each well were photographed at 0 and 12 h to estimate the scratch wound closure. Images were analyzed using ImageJ program (NIH, Bethesda, Md.) and % wound closure was calculated relative to vehicle control and was reported as wound closure % over control (Table 4). 3T3 Swiss fibroblast were seeded into 24-well tissue culture at a concentration of 3×10^5 cells/ml and cultured to nearly confluent cell monolayers. Then, a linear wound was generated in the monolayer with a sterile 100 μl plastic pipette tip. Any cellular debris was removed by washing with PBS. DMEM medium with vehicle (0.1% ethanol), FBS (1%, positive control), or various concentrations of brassinosteroids were added to a set of 3 wells per dose and incubated for 12 h at 37° C. with 5% CO2. Cells were visualized in 10% methylene blue for 5 minutes. Three representative images from each well of the scratched areas under each condition were photographed to estimate the relative migration of cells at 0 and 12 h post-treatment. Data were analyzed using ImageJ software available online from the National Institutes of Health (rsbweb.nih.gov/ij/) by calculating the percentage of scratch closure at each dose point relative to control.

3T3 mouse fibroblasts = experiment: Cell proliferation, BrdU assay; type: cell-based; conditions: 24 h
Experimental: as §3

[6] = test system: 3T3 Swiss fibroblast monolayers; conditions: PDGF 2 nM reference treatment, reported previously (Schmidt et al.); cited from earlier work

Compound: CC(C)[C@@H](C)[C@@H](O)[C@H](O)[C@@H](C)[C@H]1CC[C@H]2[C@@H]3COC(=O)[C@H]4C[C@H](O)[C@H](O)C[C@]4(C)[C@H]3CC[C@]12C [24-Epibrassinolide]
- median lethal dose (LD50) (rats): higher than 2000 mg/kg
- median lethal dose (LD50) (mice): higher than 1000 mg/kg

Compound: CC[C@@H](C(C)C)[C@H](O)[C@@H](O)[C@@H](C)[C@H]1CC[C@H]2[C@@H]3CC(=O)[C@H]4C[C@H](F)CC[C@]4(C)[C@H]3CC[C@]12C [Compound 4, (22S,23S,24S)-3α-fluoro-22,23-dihydroxy-24-ethyl-5α-cholestan-6-one]
- pIC50 [1]: ~4.52
- cytotoxicity compared to the original brassinosteroids [2]: increased cytotoxicity
- Protein synthesis (% increase over control) (L6 rat myotubes [3]): 22.5±2.7%
- Protein degradation (% decrease over control) (L6 rat myotubes [4]): −16.3 ± 4.2%
- Scratch wound closure at 5 μM, % of control [5]: 27.7 ± 4.0 %
- Wound Closure (% over control) ([5]; 10 μM, 12 h (Table 4)): 27.7 ± 4.0 %
- fibroblast migration activity in words ([5]; 0.1-10 μM, 12 h): high activity, similar to HB

Compound: CC[C@@H](C(C)C)[C@@H](O)[C@H](O)[C@@H](C)[C@H]1CC[C@H]2[C@@H]3COC(=O)[C@H]4C[C@H](O)[C@H](O)C[C@]4(C)[C@H]3CC[C@]12C [Compound 7, (22R,23R,24S)-2α,3α-22,23-tetrahydroxy-24-ethyl-B-homo-7-oxa-5α-cholestan-6-one]
- pIC50 [2]: < 4.52
- Cell proliferation at 5 μM, % of control (3T3 mouse fibroblasts): 29.1 ± 3.4 %
- Protein synthesis (% increase over control) (L6 rat myotubes [3]): 13.1 ± 2.4%
- Protein degradation (% decrease over control) (L6 rat myotubes [4]): −14.8 ± 3.8%
- Scratch wound closure at 5 μM, % of control [5]: 16.5 ± 0.5%

Compound: CC(C)[C@H](C)[C@H](O)[C@@H](O)[C@@H](C)[C@H]1CC[C@H]2[C@@H]3COC(=O)[C@H]4C[C@@H](O)[C@H](O)C[C@]4(C)[C@H]3CC[C@]12C [Compound 8, (22S,23S,24R)-2α,3α-22,23-tetrahydroxy-24-methyl-B-homo-7-oxa-5α-cholestan-6-one]
- pIC50 [2]: < 4.52
- Cell proliferation at 5 μM, % of control (3T3 mouse fibroblasts): 31.9 ± 5.3 %
- Protein synthesis (% increase over control) (L6 rat myotubes [3]): 4.1 ± 1.7%
- Protein degradation (% decrease over control) (L6 rat myotubes [4]): −5.4 ± 7.9%
- Scratch wound closure at 5 μM, % of control [5]: 13.2 ± 1.5%

Compound: CC(C)C(C)C(O)C(O)C(C)C1CCC2C3COC(=O)C4CC(O)C(O)CC4(C)C3CCC12C [Compound 9, (22R,23R,24R)-2α,3α-22,23-tetrahydroxy-24-methyl-B-homo-7-oxa-5α-cholestan-6-one]
- pIC50 [2]: < 4.52
- Cell proliferation at 5 μM, % of control (3T3 mouse fibroblasts): 31.0 ± 2.6 %
- Protein synthesis (% increase over control) (L6 rat myotubes [3]): 11.7 ± 3.9%
- Protein degradation (% decrease over control) (L6 rat myotubes [4]): −6.7 ± 7.9%
- Scratch wound closure at 5 μM, % of control [5]: 8.1 ± 1.6%

Compound: PDGF
- Scratch wound closure, % of control [6]: 64.8 ± 1.7 %
